Laboratory results taken from patent US8822468B2 (Novartis AG, priority 2008, dated 2014).

Target: T1, cMET receptor tyrosine kinase (GST-cMET (969-1390)) (Homo sapiens, UniProt P08581)
T1 construct: made in house
Experiment: EPK cMET profiling assay (LanthaScreen TR-FRET antibody based kinase phosphorylation assay)
Type: biochemical
Details: purified recombinant GST-cMET (969-1390), 2 μM ATP, 50 nM Fluorescein-PolyEAY, 60 minutes at room temperature; read-out: c-Met IC50
In short: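 Compounds tested at eight final concentrations from 10 down to 0.003 µM against affinity-purified GST-cMET (969-1390, 0.3 nM) with 2 µM ATP and 50 nM fluorescein-PolyEAY in Tris buffer with MgCl2 and MnCl2, 1 h at room temperature. After EDTA stop, phosphoproduct detected by LanthaScreen TR-FRET with Tb-PY20 antibody, end-point measurement.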

T1 sequence (P08581 969-1390): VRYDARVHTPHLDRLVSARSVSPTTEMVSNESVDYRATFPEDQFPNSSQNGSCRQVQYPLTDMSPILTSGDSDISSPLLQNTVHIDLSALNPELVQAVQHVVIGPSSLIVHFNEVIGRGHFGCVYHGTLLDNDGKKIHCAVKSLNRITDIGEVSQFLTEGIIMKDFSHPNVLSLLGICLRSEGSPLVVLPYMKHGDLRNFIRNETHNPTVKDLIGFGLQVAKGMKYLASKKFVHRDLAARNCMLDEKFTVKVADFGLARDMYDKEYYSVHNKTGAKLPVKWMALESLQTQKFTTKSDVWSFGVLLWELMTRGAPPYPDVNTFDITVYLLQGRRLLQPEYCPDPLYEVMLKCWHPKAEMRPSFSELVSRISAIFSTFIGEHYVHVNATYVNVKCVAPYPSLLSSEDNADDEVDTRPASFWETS

| Structure (SMILES) | IC50 |
| --- | --- |
| Cn1cc(-c2ccc3ncc(Cc4ccc5[nH]ncc5c4)n3n2)cn1 [Example 150, 3-(1H-Indazol-5-ylmethyl)-6-(1-methyl-1H-pyrazol-4-yl)-imidazo[1,2-b]pyridazine] | 56 nM |
| [2H]C([2H])(c1ccc2ncccc2c1)c1cnc2ccc(-c3cnn(C)c3)nn12 [Example 143, 6{Dideutero-[6-(1-methyl-1H-pyrazol-4-yl)-imidazo[1,2-b]pyridazin-3-ylmethyl]}-quinoline] | 44 nM |
| Clc1cccc(Sc2ccc3ncc(Cc4ccc5ncccc5c4)n3n2)c1 [Example 112, 6-[6-(3-Chloro-phenylsulfanyl)-imidazo[1,2-b]pyridazin-3-ylmethyl]-quinoline] | 220 nM |
| Cn1cc(-c2ccc3ncc(C(O)c4ccc5ncccc5c4F)n3n2)cn1 (racemic) [Example 247, (rac)-(5-Fluoro-quinolin-6-yl)-[6-(1-methyl-1H-pyrazol-4-yl)-imidazo[1,2-b]pyridazin-3-yl]-methanol] | 66 nM |
| Cn1ncc2c(F)c(Cc3cnc4ccc(-c5cnn(CCO)c5)nn34)c(F)cc21 [Example 285, 2-{4-[3-(4,6-Difluoro-1-methyl-1H-indazol-5-ylmethyl)-imidazo[1,2-b]pyridazin-6-yl]-pyrazol-1-yl}-ethanol] | 11 nM |
| FC(F)(F)CNc1ccc2ncc(Cc3ccc4ncccc4c3)n2n1 [Example 114, (3-Quinolin-6-ylmethyl-imidazo[1,2-b]pyridazin-6-yl)-(2,2,2-trifluoro-ethyl)-amine] | 56 nM |
| Cn1cc(-c2ccc3ncc(Cc4ccc5[nH]cnc5c4)n3n2)cn1 [Example 162, 3-(1H-Benzoimidazol-5-ylmethyl)-6-(1-methyl-1H-pyrazol-4-yl)-imidazo[1,2-b]pyridazine] | 34 nM |
| OCCn1cc(-c2ccc3ncc(Cc4ccc5nccn5c4)n3n2)cn1 [Example 215, 2-[4-(3-Imidazo[1,2-a]pyridin-6-ylmethyl-imidazo[1,2-b]pyridazin-6-yl)-pyrazol-1-yl]-ethanol] | 130 nM |
| NC(=O)c1cccc(-c2ccc3ncc(Cc4ccc5ncccc5c4)n3n2)c1 [Example 57, 3-(3-Quinolin-6-ylmethyl-imidazo[1,2-b]pyridazin-6-yl)-benzamide] | 63 nM |
| OCCn1cc(-c2ccc3ncc(Cc4ccc(O)cc4F)n3n2)cn1 [Example 219, 3-Fluoro-4-{6-[1-(2-hydroxy-ethyl)-1H-pyrazol-4-yl]-imidazo[1,2-b]pyridazin-3-ylmethyl}-phenol] | 120 nM |
| c1cn2cc(Cc3cnc4ccc(-c5cnn(C6CCNCC6)c5)nn34)ccc2n1 [Example 291, 3-Imidazo[1,2-a]pyridin-6-ylmethyl-6-(1-piperidin-4-yl-1H-pyrazol-4-yl)-imidazo[1,2-b]pyridazine] | 590 nM |
| CNC(=O)c1cccc(-c2ccc3ncc(Cc4ccc5ncccc5c4)n3n2)c1 [Example 58, N-Methyl-3-(3-quinolin-6-ylmethyl-imidazo[1,2-b]pyridazin-6-yl)-benzamide] | 250 nM |
| CC(c1ccc2ncc(Br)n2c1)c1cnc2ccc(-c3cnn(C)c3)nn12 (racemic) [Example 309, (rac)-3-[1-(3-Bromo-imidazo[1,2-a]pyridin-6-yl)-ethyl]-6-(1-methyl-1H-pyrazol-4-yl)imidazo[1,2-b]pyridazine] | 16 nM |
| Cc1cn(-c2ccc3ncc(Cc4ccc5ncccc5c4)n3n2)cn1 [Example 118, 6-[6-(4-Methyl-imidazol-1-yl)-imidazo[1,2-b]pyridazin-3-ylmethyl]-quinoline] | 220 nM |
| Cn1cc(-c2ccc3ncc([C@H](O)c4ccc5ncccc5c4)n3n2)cn1 [Example 151, (R)-[6-(1-Methyl-1H-pyrazol-4-yl)-imidazo[1,2-b]pyridazin-3-yl]-quinolin-6-yl-methanol] | 64 nM |
| c1cnc2ccc(Cc3cnc4ccc(-c5cn[nH]c5)nn34)cc2c1 [Example 212, 6-[6-(1H-Pyrazol-4-yl)-imidazo[1,2-b]pyridazin-3-ylmethyl]-quinoline] | 54 nM |
| Fc1cc2ncccc2c(F)c1Cc1cnc2ccc(-c3cnn(C4CCNCC4)c3)nn12 [Example 245, 5,7-Difluoro-6-[6-(1-piperidin-4-yl-1H-pyrazol-4-yl)-imidazo[1,2-b]pyridazin-3-ylmethyl]-quinoline] | 44 nM |
| Clc1ccc(-c2ccc3ncc(Cc4ccc5ncccc5c4)n3n2)cc1 [Example 27, 6-[6-(4-Chloro-phenyl)-imidazo[1,2-b]pyridazin-3-ylmethyl]-quinoline] | 110 nM |
| CCn1cc(-c2ccc3ncc(Cc4ccc5ncccc5c4)n3n2)cn1 [Example 211, 6-[6-(1-Ethyl-1H-pyrazol-4-yl)-imidazo[1,2-b]pyridazin-3-ylmethyl]-quinoline] | 86 nM |
| Cn1cc(-c2ccc3ncc(Cc4ccc5ncc(CO)n5c4)n3n2)cn1 [Example 300, {6-[6-(1-Methyl-1H-pyrazol-4-yl)-imidazo[1,2-b]pyridazin-3-ylmethyl]-imidazo[1,2-a]pyridin-3-yl}-methanol] | 300 nM |

| Structure (SMILES) | IC50 |
| --- | --- |
| CC(c1ccc(O)cc1)c1cnc2ccc(-c3cnn(C)c3)nn12 (racemic) [Example 222, (rac)-4-{1-[6-(1-Methyl-1H-pyrazol-4-yl)-imidazo[1,2-b]pyridazin-3-yl]-ethyl}-phenol] | 250 nM |
| CC(=O)c1cccc(-c2ccc3ncc(Cc4ccc5ncccc5c4)n3n2)c1 [Example 55, 1-[3-(3-Quinolin-6-ylmethyl-imidazo[1,2-b]pyridazin-6-yl)-phenyl]-ethanone] | 31 nM |
| FC(F)(F)c1cccc(-c2ccc3ncc(Cc4ccc5ncccc5c4)n3n2)c1 [Example 18, 6-[6-(3-Trifluoromethyl-phenyl)-imidazo[1,2-b]pyridazin-3-ylmethyl]-quinoline] | 65.5 nM |
| N#Cc1cc(-c2ccc3ncc(Cc4ccc5ncccc5c4)n3n2)ccc1F [Example 67, 2-Fluoro-5-(3-quinolin-6-ylmethyl-imidazo[1,2-b]pyridazin-6-yl)-benzonitrile] | 160 nM |
| c1ccc(-c2cc(-c3ccc4ncc(Cc5ccc6ncccc6c5)n4n3)on2)cc1 [Example 34, 6-[6-(3-Phenyl-isoxazol-5-yl)-imidazo[1,2-b]pyridazin-3-ylmethyl]-quinoline] | 230 nM |
| OCCn1cc(-c2ccc3ncc(Cc4c(F)cc5ncccc5c4F)n3n2)cn1 [Example 171, 2-{4-[3-(5,7-Difluoro-quinolin-6-ylmethyl)-imidazo[1,2-b]pyridazin-6-yl]-pyrazol-1-yl}-ethanol] | < 3 nM |
| c1ccc2cc(-c3ccc4ncc(Cc5ccc6ncccc6c5)n4n3)ccc2c1 [Example 17, 6-(6-Naphthalen-2-yl-imidazo[1,2-b]pyridazin-3-ylmethyl)-quinoline] | 210 nM |
| Cn1cc(-c2ccc3ncc(C(O)c4ccc5nccnc5c4)n3n2)cn1 (racemic) [Example 11, (rac)-[6-(1-Methyl-1H-pyrazol-4-yl)-imidazo[1,2-b]pyridazin-3-yl]-quinoxalin-6-yl-methanol] | 910 nM |
| Cn1cc(-c2ccc3ncc(C4(c5ccc6ncccc6c5)CC4)n3n2)cn1 [Example 163, 6-{1-[6-(1-Methyl-1H-pyrazol-4-yl)-imidazo[1,2-b]pyridazin-3-yl]-cyclopropyl}-quinoline] | 110 nM |
| OCCn1cc(-c2ccc3ncc(Cc4cc5cccnc5cc4Cl)n3n2)cn1 [Example 243, 2-{4-[3-(7-Chloro-quinolin-6-ylmethyl)-imidazo[1,2-b]pyridazin-6-yl]-pyrazol-1-yl}-ethanol] | 37 nM |
| CC(c1cc2cnn(C)c2cc1F)c1cnc2ccc(-c3cnn(CCO)c3)nn12 (racemic) [Example 279, (rac)-2-(4-{3-[1-(6-Fluoro-1-methyl-1H-indazol-5-yl)-ethyl]-imidazo[1,2-b]pyridazin-6-yl}-pyrazol-1-yl)-ethanol] | 15 nM |
| CC(c1ccc2ncn(CCN3CCCC3)c2c1)c1cnc2ccc(-c3cnn(C)c3)nn12 (racemic) [Example 207, (rac)-6-(1-Methyl-1H-pyrazol-4-yl)-3-{1-[3-(2-pyrrolidin-1-yl-ethyl)-3H-benzoimidazol-5-yl]-ethyl}-imidazo[1,2-b]pyridazine] | 310 nM |
| C[C@H](c1ccc2nccn2c1)c1cnc2ccc(-c3cnn(C)c3)nn12 [Example 294, 3-((R)-1-Imidazo[1,2-a]pyridin-6-yl-ethyl)-6-(1-methyl-1H-pyrazol-4-yl)-imidazo[1,2-b]pyridazine] | 820 nM |
| CC(c1ccc2ncccc2c1Cl)c1cnc2ccc(-c3cnn(CCO)c3)nn12 (racemic) [Example 188, (rac)-2-(4-{3-[1-(5-Chloro-quinolin-6-yl)-ethyl]-imidazo[1,2-b]pyridazin-6-yl}-pyrazol-1-yl)ethanol] | 5.6 nM |
| Cn1cc(-c2ccc3ncc(C(O)c4ccc5ncn(C)c5c4)n3n2)cn1 (racemic) [Example 229, (rac)-(3-Methyl-3H-benzoimidazol-5-yl)-[6-(1-methyl-1H-pyrazol-4-yl)-imidazo[1,2-b]pyridazin-3-yl]-methanol] | 520 nM |
| FC(F)(F)Oc1ccc(-c2ccc3ncc(Cc4ccc5ncccc5c4)n3n2)cc1 [Example 43, 6-[6-(4-Trifluoromethoxy-phenyl)-imidazo[1,2-b]pyridazin-3-ylmethyl]-quinoline] | 350 nM |
| CNC1CCN(c2ccc3ncc(Cc4cc5cccnc5cc4F)n3n2)C1 (racemic) [Example 260, (rac)-{1-[3-(7-fluoro-quinolin-6-ylmethyl)-imidazo[1,2-b]pyridazin-6-yl]-pyrrolidin-3-yl}-methylamine] | 5.2 nM |
| C[C@@H](c1cc2cn[nH]c2cc1F)c1cnc2ccc(-c3cnn(C)c3)nn12 [Example 165, 3-[(S)-1-(6-Fluoro-1H-indazol-5-yl)-ethyl]-6-(1-methyl-1H-pyrazol-4-yl)-imidazo[1,2-b]pyridazine] | 12 nM |
| C[C@@H](c1ccc2ncccc2c1)c1cnc2ccc(Cl)nn12 [Example 273, 6-[(S)-1-(6-Chloro-imidazo[1,2-b]pyridazin-3-yl)-ethyl]-quinoline] | 21 nM |
